Assay results from publication PMC12541891 (MicrobiologyOpen, 2025).
In brackets after ≈: the same amount, converted by molar mass.

How the values were obtained:
[1] = system: Escherichia coli MG1655 (ATCC 700926); assay: MIC and MBC by microbroth dilution; assay type: cell-based
Description: (§1) No substance was added, in one well, for growth control. A bacterial suspension of 1 × 10^8 CFU/mL was inoculated into all wells of the plate and incubated for 24 h at 37°C. […] The dilutions ranged from 4 to 2000 µg/mL for the substances. The inoculum size was about 2.5×10^3 cells/mL. The plates were incubated at 28°C for 24–48 h. The MIC was determined as the lowest substances' concentration where no visible bacterial or fungal growth was observed. […] Each antimicrobial assay was performed in triplicate.

[2] = system: Extended Spectrum-Beta-Lactamase producing E. coli (ESBL-Ec); assay: MIC and MBC by microbroth dilution; assay type: cell-based; settings: Escherichia coli, ESBL-Ec
Description: as §1

[3] = system: Staphylococcus aureus ATCC 6538; assay: MIC and MBC by microbroth dilution; assay type: cell-based
Description: as §1

[4] = system: methicillin resistant S. aureus (MRSA); assay: MIC and MBC by microbroth dilution; assay type: cell-based; settings: Staphylococcus aureus
Description: as §1

C. albicans AIDS 68 = assay: MIC and MFC by microbroth dilution; assay type: cell-based; settings: Candida albicans, AIDS68, C. albicans
Description: as §1

C. tropicalis 45,615 = assay: MIC and MFC by microbroth dilution; assay type: cell-based; settings: Candida tropicalis, C. tropicalis
Description: as §1

C. glabrata DSY562 = assay: MIC and MFC by microbroth dilution; assay type: cell-based, Candida glabrata; settings: Nakaseomyces glabratus, DSY562, C. glabrata
Description: as §1

C. krusei 44956 = assay: MIC and MFC by microbroth dilution; assay type: cell-based, Candida krusei; settings: Pichia kudriavzevii, 44956, C. krusei
Description: as §1

E. coli biofilm [5] = assay: Biofilm biomass by crystal violet (CV) assay; assay type: cell-based, Escherichia coli
Description: (§2) For all bacterial strains considered in the study, biofilm was performed on a 96‐well plate inoculated with 200 µL of a bacterial suspension 1 × 10^6 CFU/mL and incubated 24 h at 37°C. After incubation for 4 h at 37°C, the medium was aspirated, non‐adherent cells were removed, washed with PBS and added with 200 µL of fresh medium. […] Similarly, to perform fungal biofilm, the different Candida species were grown for 24 h at 28°C on a multi‐wells plate, washed twice with sterile PBS, and then resuspended at 37°C in RPMI 1640 plus 10% FBS at 2.5 × 10^7 cells. After incubation for 3 h at 37°C in six‐well polystyrene plates, the medium was aspirated, non‐adherent cells were removed and washed with PBS.
(§3) To quantify bacterial and Candida biofilm biomass, CV, a dye able to color the biofilm matrix, was used. Firstly, after the removal of supernatant and washing with PBS, biofilm was fixed adding 100 µL of 99% methanol for 15 min. Then, methanol was rinsed off and the plates were air‐dried. Subsequently, 100 µL of a 0.1% of CV solution were added to wells and, after 20 min of contact, the plates were washed under running tap water. To dissolve the bounded CV, 150 µL of 33% of glacial acetic acid were added to wells. The absorbance was measured at 590 nm using an automatic microplate reader, Tecan Sunrise (Tecan Group Ltd., Männedorf, Switzerland).

ESBL-Ec biofilm [6] = assay: Biofilm biomass by crystal violet (CV) assay; assay type: cell-based, Escherichia coli
Description: as §2, §3

MRSA biofilm [7] = assay: Biofilm biomass by crystal violet (CV) assay; assay type: cell-based, Staphylococcus aureus
Description: as §2, §3

S. aureus biofilm [8] = assay: Biofilm biomass by crystal violet (CV) assay; assay type: cell-based, Staphylococcus aureus
Description: as §2, §3

C. albicans biofilm [9] = assay: Biofilm biomass by crystal violet (CV) assay; assay type: cell-based, Candida albicans
Description: as §2, §3

C. glabrata biofilm [10] = assay: Biofilm biomass by crystal violet (CV) assay; assay type: cell-based, Candida glabrata
Description: as §2, §3

C. krusei biofilm [11] = assay: Biofilm biomass by crystal violet (CV) assay; assay type: cell-based, Candida krusei
Description: as §2, §3

C. tropicalis biofilm [12] = assay: Biofilm biomass by crystal violet (CV) assay; assay type: cell-based, Candida tropicalis; settings: substance alone at MIC
Description: as §2, §3

E. coli biofilm [13] = assay: Biofilm metabolic activity by XTT-reduction assay; assay type: cell-based, Escherichia coli
Description: as §2
(§4) The biofilm metabolic activity was evaluated by XTT assay, that highpoints the activity through the reduction of the tetrazolium salt to formazan. After the removal of supernatant and washing with PBS, a solution of XTT‐menadione solution were added to wells. The XTT‐menadione was prepared dissolving XTT powder in prewarmed PBS (37°C) at 0.5 g/L. The solution was sterilized through a 0.22 μm pore size filter. Before each assay, the XTT solution was thawed and supplemented with menadione, a 10 mM stock dissolved in acetone to a final concentration 1 μM. Plates were incubated for 3 h at 37°C in the dark and then the absorbance was measured at 492 nm using the microplate reader, Tecan Sunrise.

ESBL-Ec biofilm [14] = assay: Biofilm metabolic activity by XTT-reduction assay; assay type: cell-based, Escherichia coli
Description: as §2, §4

MRSA biofilm [15] = assay: Biofilm metabolic activity by XTT-reduction assay; assay type: cell-based, Staphylococcus aureus
Description: as §2, §4

S. aureus biofilm [16] = assay: Biofilm metabolic activity by XTT-reduction assay; assay type: cell-based, Staphylococcus aureus
Description: as §2, §4

C. albicans biofilm [17] = assay: Biofilm metabolic activity by XTT-reduction assay; assay type: cell-based, Candida albicans
Description: as §2, §4

C. glabrata biofilm [18] = assay: Biofilm metabolic activity by XTT-reduction assay; assay type: cell-based, Candida glabrata
Description: as §2, §4

C. krusei biofilm [19] = assay: Biofilm metabolic activity by XTT-reduction assay; assay type: cell-based, Candida krusei
Description: as §2, §4

C. tropicalis biofilm [20] = assay: Biofilm metabolic activity by XTT-reduction assay; assay type: cell-based, Candida tropicalis; settings: biofilm in formation (3 h), substance alone at MIC
Description: as §2, §4

[21] = planktonic, 24 h, read-out: MIC
[22] = planktonic, 24-48 h, read-out: MIC
[23] = biofilm in formation (4 h), substance alone at MIC
[24] = preformed biofilm (24 h), substance alone at MIC
[25] = biofilm in formation, sub-MIC concentrations alone or in combination (Table 5), listed as T
[26] = preformed biofilm, sub-MIC concentrations alone or in combination (Table 5)
[27] = biofilm in formation (3 h), substance alone at MIC
[28] = biofilm in formation (3 h), substance alone at MIC, listed as thymol
[29] = biofilm in formation, sub-MIC concentrations alone or in combination (Table 5)

Cc1ccc(C(C)C)c(O)c1 [Thymol, 2‐isopropyl‐5‐methylphenol]
MIC ([1]; E. coli MG1655, planktonic, 24 h, read-out: MIC): 125 µg/mL (≈ 832 µM) | MBC ([1]; E. coli MG1655, read-out: MBC): 250 µg/mL (≈ 1660 µM) | MIC [2, 21]: 125 µg/mL (≈ 832 µM) | MBC ([2]; read-out: MBC): 250 µg/mL (≈ 1660 µM) | MIC ([3]; ATCC6538, S. aureus 6538, planktonic, 24 h, read-out: MIC): 250 µg/mL (≈ 1660 µM) | MBC ([3]; ATCC6538, S. aureus 6538, read-out: MBC): 250 µg/mL (≈ 1660 µM) | MIC [4, 21]: 250 µg/mL (≈ 1660 µM) | MBC ([4]; read-out: MBC): 250 µg/mL (≈ 1660 µM) | MIC (C. albicans AIDS 68; [22]): ≥ 2000 µg/mL | MFC (C. albicans AIDS 68; read-out: MFC): ≥ 2000 µg/mL | MIC (C. tropicalis 45,615; [22]): ≥ 2000 µg/mL | MFC (C. tropicalis 45,615; read-out: MFC): ≥ 2000 µg/mL | MIC (C. glabrata DSY562; [22]): ≥ 2000 µg/mL | MFC (C. glabrata DSY562; read-out: MFC): ≥ 2000 µg/mL | MIC (C. krusei 44956; [22]): ≥ 2000 µg/mL | MFC (C. krusei 44956; read-out: MFC): ≥ 2000 µg/mL | Percentage of biomass reduction (E. coli biofilm [5]; [23]): 87.7% | Percentage of biomass reduction (E. coli biofilm [5]; [24]): 87% | Percentage of biomass reduction (ESBL-Ec biofilm [6]; [23]): 70% | Percentage of biomass reduction (ESBL-Ec biofilm [6]; [24]): 69.8% | Percentage of biomass reduction (MRSA biofilm [7]; [23]): 90% | Percentage of biomass reduction (MRSA biofilm [7]; [25]): 22.6% | Percentage of biomass reduction (MRSA biofilm [7]; [24]): 87% | Percentage of biomass reduction (MRSA biofilm [7]; [26]): 31.3% | Percentage of biomass reduction (S. aureus biofilm [8]; [23]): 79.7% | Percentage of biomass reduction (S. aureus biofilm [8]; [25]): 11.6% | Percentage of biomass reduction (S. aureus biofilm [8]; [24]): 82.7% | Percentage of biomass reduction (C. albicans biofilm [9]; [27]): 44.6% | Percentage of biomass reduction (C. albicans biofilm [9]; [28]): about 40% | Percentage of biomass reduction (C. albicans biofilm [9]; [29]): about 22% | Percentage of biomass reduction (C. albicans biofilm [9]; [25]): 22.5% | Percentage of biomass reduction (C. glabrata biofilm [10]; [27]): 52.1% | Percentage of biomass reduction (C. glabrata biofilm [10]; [28]): about 40% | Percentage of biomass reduction (C. glabrata biofilm [10]; [24]): 17.5% | Percentage of biomass reduction (C. krusei biofilm [11]; [27]): no effect | Percentage of biomass reduction (C. krusei biofilm [11]; [24]): 18.5% | Percentage of biomass reduction (C. tropicalis biofilm [12]; biofilm in formation (3 h)): 37.1% | Percentage of biomass reduction (C. tropicalis biofilm [12]; biofilm in formation (3 h), listed as thymol): about 40% | Percentage of biomass reduction (C. tropicalis biofilm [12]; preformed biofilm (24 h)): 11.8% | Percentage of metabolic activity reduction (E. coli biofilm [13]; [23]): 84.8% | Percentage of metabolic activity reduction (E. coli biofilm [13]; [29]): ~50% | Percentage of metabolic activity reduction (E. coli biofilm [13]; [25]): 51.3% | Percentage of metabolic activity reduction (E. coli biofilm [13]; [24]): 74% | Percentage of metabolic activity reduction (E. coli biofilm [13]; [26]): 22.4% | Percentage of metabolic activity reduction (ESBL-Ec biofilm [14]; [23]): 77.9% | Percentage of metabolic activity reduction (ESBL-Ec biofilm [14]; [29]): ~50% | Percentage of metabolic activity reduction (ESBL-Ec biofilm [14]; [25]): 52% | Percentage of metabolic activity reduction (ESBL-Ec biofilm [14]; [24]): 74% | Percentage of metabolic activity reduction (MRSA biofilm [15]; [23]): 96.3% | Percentage of metabolic activity reduction (MRSA biofilm [15]; [24]): 97.5% | Percentage of metabolic activity reduction (MRSA biofilm [15]; [26]): 17.2% | Percentage of metabolic activity reduction (S. aureus biofilm [16]; [23]): 90% | Percentage of metabolic activity reduction (S. aureus biofilm [16]; [25]): 12% | Percentage of metabolic activity reduction (S. aureus biofilm [16]; [24]): 90% | Percentage of metabolic activity reduction (C. albicans biofilm [17]; [27]): 85.1% | Percentage of metabolic activity reduction (C. albicans biofilm [17]; [29]): about 22% | Percentage of metabolic activity reduction (C. albicans biofilm [17]; [25]): 24.0% | Percentage of metabolic activity reduction (C. albicans biofilm [17]; [24]): 84.1% | Percentage of metabolic activity reduction (C. albicans biofilm [17]; preformed biofilm (24 h), substance alone at MIC, listed as thymol): 80% | Percentage of metabolic activity reduction (C. albicans biofilm [17]; [26]): 9.0% | Percentage of metabolic activity reduction (C. glabrata biofilm [18]; [27]): 90% | Percentage of metabolic activity reduction (C. glabrata biofilm [18]; [24]): 9.6% | Percentage of metabolic activity reduction (C. glabrata biofilm [18]; [26]): 11.4% | Percentage of metabolic activity reduction (C. krusei biofilm [19]; [27]): 71.7% | Percentage of metabolic activity reduction (C. krusei biofilm [19]; [29]): 25% | Percentage of metabolic activity reduction (C. krusei biofilm [19]; [24]): 47% | Percentage of metabolic activity reduction (C. krusei biofilm [19]; [26]): 25.1% | Percentage of metabolic activity reduction (C. tropicalis biofilm [20]): 53.9%

OC(Cn1cncn1)(Cn1cncn1)c1ccc(F)cc1F [FLC, fluconazole, reference compound]
Percentage of biomass reduction (C. albicans biofilm [9]; [29]): 30.6% | Percentage of biomass reduction (C. glabrata biofilm [10]; [29]): 20.5% | Percentage of biomass reduction (C. krusei biofilm [11]; [26]): 14% | Percentage of metabolic activity reduction (C. albicans biofilm [17]; [29]): 25.1% | Percentage of metabolic activity reduction (C. albicans biofilm [17]; [26]): 6.9% | Percentage of metabolic activity reduction (C. glabrata biofilm [18]; [29]): 27.1% | Percentage of metabolic activity reduction (C. glabrata biofilm [18]; [26]): 5.3% | Percentage of metabolic activity reduction (C. krusei biofilm [19]; [26]): 14%

CNC(C)C1CCC(N)C(OC2C(N)CC(N)C(OC3OCC(C)(O)C(NC)C3O)C2O)O1 (stereo not shown) [GM, gentamicin, reference compound]
Percentage of biomass reduction (E. coli biofilm [5]; [29]): 48% | Percentage of biomass reduction (E. coli biofilm [5]; [26]): 59.8% | Percentage of biomass reduction (ESBL-Ec biofilm [6]; [29]): 66.7% | Percentage of biomass reduction (ESBL-Ec biofilm [6]; [26]): 48.9% | Percentage of biomass reduction (MRSA biofilm [7]; [29]): 57.6% | Percentage of biomass reduction (MRSA biofilm [7]; [26]): 33.6% | Percentage of metabolic activity reduction (E. coli biofilm [13]; [29]): 35.9% | Percentage of metabolic activity reduction (E. coli biofilm [13]; [26]): 48.3% | Percentage of metabolic activity reduction (ESBL-Ec biofilm [14]; [29]): 50% | Percentage of metabolic activity reduction (MRSA biofilm [15]; [29]): 22.3% | Percentage of metabolic activity reduction (MRSA biofilm [15]; [26]): 16% | Percentage of metabolic activity reduction (S. aureus biofilm [16]; [26]): 15.2%
